Several values for one entry are separate records, joined by “and”; a condition that tells them apart may be missing. Equal entries are not always repeated. Where two headings read alike, the source gives them in different places.
Experiments:
[1] = cited from earlier work
[2] = Bench-top stability in human plasma, 4 h at room temperature; type: in vitro ADME; details: for Acc. %, T = 4h (RT): % of nominal
Experimental: (§1) Stability tests were conducted using QCs prepared in triplicate at each concentration (L, M, H): bench-top stability was investigated after 4 h at room temperature; stability of the deproteinized QCs was evaluated in autosampler set at 4 °C re-analysing the samples 24, 48, and 72 h after the first injection; freeze/thaw stability was assessed by analysing three freshly prepared aliquots of each QCs concentration, and then again after one and two freeze/thaw cycles.

[3] = LC-MS/MS quantification of Cmin in plasma samples from breast cancer patients (clinical study CRO-2018-83); type: in vivo, human; details: for concentration at 15 h / concentration at 30 h: human, plasma, oral; for concentration at 15 h: patient 7, sample 9, PALBO 125 mg/day; for concentration at 30 h: patient 8, sample 10, RIBO 600 mg/day + LETRO 2.5 mg/day
Experimental: Preparation of calibration curve and QCs samples was conducted through the following steps: 1) 5 μL of working solutions were added to 95 μL of blank human plasma (dilution 1:20) and vortexed for 10 s; 2) a 10 μL-aliquot of this mix was added with 80 μL of cold IS working solution (see “Standard solutions preparation” section), vortexed and then centrifuged for 15 min at 16200 g and 4°C; 3) 70 μL of the supernatant were transferred to a polypropylene tube for the following analysis. […] The preparation of patients’ samples was conducted as following: patient plasma was thawed at room temperature, vortexed for 10 s and centrifuged, for 10 min, at 3000 g and 4°C; 10 μL of plasma was then treated according to steps 2) and 3).
The HPLC system was a SIL-20AC XR auto-sampler and LC-20AD UFLC XR pumps (Shimadzu, Tokyo, Japan). The mobile phases (MP) consisted of ultrapure water with 0.1% HCOOH (phase A) and methanol/isopropanol (9:1, v/v) with 0.1% HCOOH (phase B). The chromatographic separation was obtained on the Luna Omega Polar C18 column ([…], 100 Å, 50 x 2.1 mm) coupled with a Security Guard Cartridge (Polar, C18, 4 x 2.0 mm), both provided by Phenomenex (Castel Maggiore (BO), Italy). The mass spectrometry system used for the detection was an API 4000 triple quadrupole (AB SCIEX, Massachusetts, USA) with a TurboIonSpray source operating in positive ion mode. To optimize source and compound dependent parameters, solutions of each analyte at the concentration of 100 ng/mL were used with a flow rate of 20 μL/min. Data were processed with Analyst 1.6.3 and the quantification of the peaks was done with MultiQuant 2.1 (software package AB SCIEX).
The exclusion criteria were to be non-collaborative and/or unreliable patients and refusal of informed consent. Patients were asked to periodically (every two months) collect plasma samples for the estimation of PALBO or RIBO and/or LETRO Cmin during their therapy treatment.
Plasma was obtained immediately by centrifugation of the blood samples at 3000 g for 10 min at 4°C. Then the obtained plasma was split into two independent aliquots and stored at -80°C in two different freezers.
At present, each of the 10 patients’ samples collected were quantified in 2 separate runs during 2 different working days, to further assess the reproducibility of the proposed method. In fact, as recently introduced in the last version of the FDA guideline, incurred samples re-analysis (ISR) is necessary to show the reliability of the reported analyte concentrations obtained with a bioanalytical method. ISR is conducted by repeating the analysis of a subset of patients’ samples in separate runs. The two analyses can be considered equivalent if the percentage difference [expressed as: (repeat-original)*100/mean] between the first and the second concentration measured is within ±20% for at least 67% of the samples [23, 24].

[4] = Long term stability of working solutions in methanol at -20°C; type: physicochemical; details: for Acc. %, stored at -20ºC over 2 months (methanol): % of nominal
[5] = design: method as in PMID 29862467; details: exposure-efficacy analysis in patients; cited from earlier work
[6] = Stability of deproteinized QCs in autosampler at 4 °C; type: physicochemical; details: for Acc. %, T = 72 h in autosampler (4°C): % of nominal
Experimental: as §1

[7] = Long term stability in human plasma at -80°C; type: in vitro ADME; details: for Acc. %, stored at -80ºC over 2 months (plasma): % of nominal
[8] = plasma QC high: nominal 200.00 PALBO / 8000.00 RIBO / 400.00 LETRO ng/mL
[9] = plasma QC low: nominal 0.50 PALBO / 20.00 RIBO / 1.00 LETRO ng/mL
[10] = plasma QC medium: nominal 20.00 PALBO / 800.00 RIBO / 40.00 LETRO ng/mL
[11] = QC high: nominal 200.00 PALBO / 8000.00 RIBO / 400.00 LETRO ng/mL
[12] = QC low: nominal 0.50 PALBO / 20.00 RIBO / 1.00 LETRO ng/mL
[13] = QC medium: nominal 20.00 PALBO / 800.00 RIBO / 40.00 LETRO ng/mL
[14] = deproteinized QC high: nominal 200.00 PALBO / 8000.00 RIBO / 400.00 LETRO ng/mL
[15] = deproteinized QC low: nominal 0.50 PALBO / 20.00 RIBO / 1.00 LETRO ng/mL
[16] = deproteinized QC medium: nominal 20.00 PALBO / 800.00 RIBO / 40.00 LETRO ng/mL

Mean ± SD measured concentration, T = 4h (RT) [2, 8]: 372.54 ± 24.58 ng/mL | Acc. %, T = 4h (RT) [2, 8]: 93.1% | Mean ± SD measured concentration, T = 4h (RT) [2, 9]: 0.88 ± 0.06 ng/mL | Acc. %, T = 4h (RT) [2, 9]: 88.2% | Mean ± SD measured concentration, T = 4h (RT) [2, 10]: 37.95 ± 1.78 ng/mL | Acc. %, T = 4h (RT) [2, 10]: 94.9% | concentration at 15 h ([3]; LETRO 2.5 mg/day, last pill intake 15 h before sampling, read-out: I quantif. plasma concentration (Cmin)): 2.8 ng/mL | concentration at 15 h ([3]; LETRO 2.5 mg/day, reanalysis in second run, read-out: II quantif. plasma concentration (Cmin)): 2.9 ng/mL | concentration at 30 h ([3]; 30 h from last pills intake, read-out: I quantif. plasma concentration (Cmin)): 46.8 ng/mL | concentration at 30 h ([3]; reanalysis in second run, read-out: II quantif. plasma concentration (Cmin)): 46.9 ng/mL | II quantif. plasma concentration (Cmin) ([3]; patient 6, sample 8, PALBO 125 mg/day, LETRO 2.5 mg/day, reanalysis in second run): 67.8 ng/mL | Mean ± SD measured concentration, stored at -20ºC over 2 months (methanol) [4, 11]: 413.47 ± 6.07 ng/mL | Acc. %, stored at -20ºC over 2 months (methanol) [4, 11]: 103.4% | Mean ± SD measured concentration, stored at -20ºC over 2 months (methanol) [4, 12]: 1.05 ± 0.03 ng/mL | Acc. %, stored at -20ºC over 2 months (methanol) [4, 12]: 105.1% | Mean ± SD measured concentration, stored at -20ºC over 2 months (methanol) [4, 13]: 44.12 ± 1.25 ng/mL | Acc. %, stored at -20ºC over 2 months (methanol) [4, 13]: 110.3% | Mean ± SD measured concentration, T = 72 h in autosampler (4°C) [6, 14]: 426.23 ± 4.43 ng/mL | Acc. %, T = 72 h in autosampler (4°C) [6, 14]: 106.6% | Mean ± SD measured concentration, T = 72 h in autosampler (4°C) [6, 15]: 0.94 ± 0.07 ng/mL | Acc. %, T = 72 h in autosampler (4°C) [6, 15]: 93.9% | Mean ± SD measured concentration, T = 72 h in autosampler (4°C) [6, 16]: 44.45 ± 0.19 ng/mL | Acc. %, T = 72 h in autosampler (4°C) [6, 16]: 111.1% | Mean ± SD measured concentration, stored at -80ºC over 2 months (plasma) [7, 11]: 386.66 ± 6.61 ng/mL | Acc. %, stored at -80ºC over 2 months (plasma) [7, 11]: 96.7% | Mean ± SD measured concentration, stored at -80ºC over 2 months (plasma) [7, 12]: 0.88 ± 0.01 ng/mL | Acc. %, stored at -80ºC over 2 months (plasma) [7, 12]: 88.3% | Mean ± SD measured concentration, stored at -80ºC over 2 months (plasma) [7, 13]: 39.58 ± 0.90 ng/mL | Acc. %, stored at -80ºC over 2 months (plasma) [7, 13]: 99.0%
Compound: N#Cc1ccc(C(c2ccc(C#N)cc2)n2cncn2)cc1 [LETRO, letrozole]
LETRO mean plasma concentration (±SD) ([1]; ref 11 (Beer et al.)): 107.0 ng/mL and 107.0 ± 62.9 ng/mL | LETRO mean plasma concentration (range) ([1]; ref 22 (Desta et al.)): 89.7 (28.4–349.2) ng/mL | LETRO plasma concentration associated with longer time to tumour progression [5]: ≥ 85.6 ng/mL

From publication PMC7006908 (PLoS ONE, 2020)
